Measured values from EPA's ToxValDB 9.5 (doi:10.2903/j.efsa.2011.2020).
Values after ≈ are worked out from the molar mass of the structure shown.

Key:
Typhlodromus pyri = test: LR50; higher = less toxic; details: not reported; mortality
Aphidius rhopalosiphi = test: LR50; higher = less toxic; details: not reported; mortality
Apis mellifera = details: acute; dermal; mortality
Coturnix japonica = details: acute, oral, mortality
Oncorhynchus mykiss = details: acute; duration: 96 hours; mortality
Rattus norvegicus = details: for LD50: acute, mortality

NC(=O)Cc1cccc2ccccc12 [1-Naphthaleneacetamide] gave an LR50 (Typhlodromus pyri) of over 40 g/ha, an LR50 (Aphidius rhopalosiphi) of over 40 g/ha and an LD50 (Mus musculus; acute, oral, F, mortality) of 1930 mg/kg-day. It also gave an NOAEL (Mus musculus; chronic, duration: 18 months, other) of 195 mg/kg-day, an LD50 (Apis mellifera) of over 100 µg/piece and an LC50 (Coturnix japonica; diet) of 4370 mg/kg-day. It also gave an LD50 (Coturnix japonica) of over 2000 mg/kg-day, an LC50 (Oncorhynchus mykiss) of 44 µg/mL (≈ 238 µM) and an LD50 (Rattus norvegicus; oral, M) of 1660 mg/kg-day. It also gave an LD50 (Rattus norvegicus; oral) of over 5050 mg/kg-day, an NOAEL (Rattus norvegicus; chronic, duration: 2 years, organ weight) of 43.8 mg/kg-day and an NOAEL (Rattus norvegicus; developmental, development) of 15 mg/kg-day. It also gave an NOAEL (Rattus norvegicus; subchronic, duration: 90 days, oral, hematological) of 10 mg/kg-day and an NOAEL (Rattus norvegicus; subchronic, duration: 90 days, oral, organ weight) of 5 mg/kg-day.
